Experimental data taken from PubChem BioAssay AID464 (The Scripps Research Institute Molecular Screening Center, 2006).
Calls of active or inactive are those of the source.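 How the source made its calls: active means Compounds that kill half the cells at a concentration of 5 micromolar or below, from the fitted or estimated CC50; inactive means CC50 above 5 micromolar.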

system: Jurkat E6.1 viability, ATP luminescence, 48 h; experiment: viability loss in Jurkat T cells – cell-based, ATP luminescence, 48 h, 60K MLSMR, cytotoxicity control, dose response (AID 464)

| SMILES | CC50 |
| --- | --- |
| CCc1nnc(NC(=O)CSc2nnc(-c3ccccc3O)n2-c2ccc(C)cc2C)s1 | 4430 nM |
| Cc1cc(NC(c2cccnc2)c2ccc3cccnc3c2O)no1 (centres undefined) | 3250 nM |
| Cn1nc(CC(=O)Nc2ccc(N3CCN(C(=O)OC(C)(C)C)CC3)cc2)c2ccccc2c1=O | > 13000 nM (inactive) |
| CCCCCCOc1ccc(/C(N)=N/O)cc1 | 6870 nM (inactive) |
| CCOC(=O)C(C)Oc1cccc2c(=O)n(CC(=O)NCc3ccc4c(c3)OCO4)ccc12 (centres undefined) | 3900 nM |
| CN1c2ccccc2C(C)(C)C12C=Cc1cc(O)ccc1O2 (centres undefined) | 10400 nM (inactive) |
| COc1ccc(C(NC(C)=O)c2ccc3cccnc3c2O)c(OC)c1 (centres undefined) | 3150 nM |
| Clc1ccc(CCNc2ncnc3nc[nH]c23)cc1 | 19600 nM (inactive) |
| O=S(=O)(CCSc1nc2ccccc2o1)c1nc2ccccc2s1 | 7250 nM (inactive) |
| COc1cccc(-c2cc(C(=O)Nc3cc(OC)c(OC)c(OC)c3)no2)c1 | 8790 nM (inactive) |
| COc1cc(C2CC(=O)c3c([nH]c(C(=O)OCCOC(C)C)c3C)C2)cc(OC)c1OC (centres undefined) | 6550 nM (inactive) |
| Cc1cc(NC(=O)COC(=O)c2ccc(S(=O)(=O)N3CCCc4ccccc43)cc2)no1 | 2160 nM |
| O=C(Nc1ccc2c(c1)nc1n2CCCCC1)c1cc(S(=O)(=O)N2CCOCC2)ccc1Cl | 21100 nM (inactive) |
| O=C(Nc1nnc(C2CC2)o1)c1ccc(S(=O)(=O)N2CCCc3ccccc32)cc1 | 22900 nM (inactive) |
| Cc1c(C(=O)OC2CCCC2)[nH]c2c1C(=O)CC(c1ccco1)C2 (centres undefined) | 167 nM |
| CCn1c(C)nc2cc(-c3nc4n(n3)Cc3ccccc3-4)ccc21 | 2570 nM |
| c1ccc(-c2noc(-c3ccc4c(c3)OCO4)n2)nc1 | 2750 nM |
| OC1(c2cccc(C(F)(F)F)c2)CCN(c2ncnc3c2[nH]c2ccc(F)cc23)CC1 | 14400 nM (inactive) |
| Cc1nc2ccccn2c1-c1csc(NCc2ccco2)n1 | > 40000 nM (inactive) |
| O=c1c2cc3ccccc3n2cnn1Cc1ccccc1F | 16400 nM (inactive) |
| CC1=C(C(=O)OCc2ccc3c(c2)OCO3)C(c2ccccc2)NC(=O)N1 (centres undefined) | 17300 nM (inactive) |
| Cc1ccccc1OCC(=O)Nc1ccc(N2CCN(C(=O)C(C)C)CC2)c(Cl)c1 | > 40000 nM (inactive) |

| SMILES | CC50 |
| --- | --- |
| CN1Cc2cc(C(=O)c3cc(Cl)cc(CSc4ncccn4)c3O)cnc2NC1=O | 212 nM |
| Clc1ccc(C2=Nn3c(nnc3-c3n[nH]c4c3CCC4)SC2)cc1 | 1640 nM |
| c1ccc(-c2nc(N3CCCCCC3)c3ccccc3n2)nc1 | 10100 nM (inactive) |
| Cc1cc(Cl)ccc1OCCCC(=O)NO | 8200 nM (inactive) |
| Cn1nnnc1SCC(=O)Nc1ccc(Oc2ccc(Cl)cc2)cc1 | 36800 nM (inactive) |
| CCCSc1nnc(Sc2nnnn2-c2ccccc2)s1 | 1280 nM |
| Nc1nnnn1/N=C/C(Br)=C/c1ccccc1 | > 13000 nM (inactive) |
| CCOC(=O)Nc1ccc2c(c1)N(C(=O)OC)c1ccccc1CC2 | > 4400 nM (inactive) |
| O=c1cc(CSc2nnc(-c3cccs3)n2Cc2ccccc2)nc2sc3ccccc3n12 | 4960 nM |
| CC1Cc2cc(-c3csc(NC(=O)Cc4cccs4)n3)ccc2N1S(C)(=O)=O (centres undefined) | 5230 nM (inactive) |
| COc1cc(NC(=O)c2ccc3c(c2)OCO3)ccc1NC(=O)C(C)C | 2200 nM |
| CCOc1ccccc1C1CC(=O)Nc2cc3c(cc21)OCCO3 (centres undefined) | 625 nM |
| CN1CCN(Cc2cc(COCc3ccccc3)c3cccnc3c2O)CC1 | 10500 nM (inactive) |
| N=c1c2c(-c3ccccc3)c(-c3ccccc3)n(Cc3ccco3)c2ncn1Cc1ccco1 | 23700 nM (inactive) |
| Cc1nc2ccc(S(=O)(=O)Nc3ccccc3C)cc2s1 | 8950 nM (inactive) |
| COc1ccc(S(=O)(=O)Nc2cc(Cl)ccc2OC)cc1 | 1010 nM |
| Cc1cc(NC(=O)CSc2nnc3c(C)cc4c(C)ccc(C)c4n23)no1 | 3830 nM |
| COc1ccc(CCNc2ncnc3c2oc2ccccc23)cc1OC | 2720 nM |
| Oc1c(CN2CCCCC2)cc(Br)c2cccnc12 | 3790 nM |
| Cc1cc2c(cc(C(=O)OCC(=O)NCc3cccs3)n2C(C)C)o1 | 837 nM |
| CCOC(=O)NC1(Nc2ccc(Cl)cn2)Oc2ccccc2O1 | 12500 nM (inactive) |
| COc1ccc(C2=Nn3c(nnc3-c3ccccc3OC)SC2)cc1OC | 116 nM |

| SMILES | CC50 |
| --- | --- |
| N=c1c2c(n(Cc3ccccc3)c3c1CCC3)CCC2 | 3660 nM |
| Cc1cc(C)n(-c2nc3ccccc3c(=O)n2OCC(=O)OCc2ccccc2)n1 | 9760 nM (inactive) |
| CC(C)(C)n1ncc2c(=O)n(CC(=O)NCc3ccc(F)cc3)cnc21 | 5130 nM (inactive) |
| O=C(NCc1cccnc1)c1c[nH]c2cc3c(cc2c1=O)OCCO3 | 1090 nM |
| CC(C)C1N=C2c3ccccc3N=C(SCC(=O)c3ccc(O)c(O)c3)N2C1=O (centres undefined) | 10200 nM (inactive) |
| Cc1nc(CNS(=O)(=O)c2ccc(Oc3ccccc3)cc2)cs1 | 10600 nM (inactive) |
| CCOc1ccc(N(CC(=O)Nc2ccccc2C)S(=O)(=O)c2c(C)noc2C)cc1 | 1350 nM |
| COc1cccc(N2C(N)=NC(N)=NC2(C)C)c1 | 2580 nM |
| O=C(CCc1ccccc1)Nc1ccc(Cl)cn1 | 2150 nM |
| COc1ccccc1C(=O)N1CCN(c2cccc(C(F)(F)F)c2)CC1 | 2090 nM |
| COc1ccccc1-c1nnc2sc(-c3ccc(N(C)C)cc3)nn12 | 34.3 nM |
| CN(C)CC(C(=O)c1ccccc1)c1ccccc1 (centres undefined) | 3910 nM |
| O=C(C1CC1)N1CCC(c2nc(-c3ccc(S(=O)(=O)NCC4CCCO4)cc3)no2)CC1 (centres undefined) | 9950 nM (inactive) |
| Cc1cc(C(=O)OCC(=O)NCc2ccco2)c(C)n1-c1ccc(F)cc1 | 2340 nM |
| O=C(Nc1ccccc1)N1CCC(c2nc(-c3ccc(S(=O)(=O)N4CCOCC4)cc3)no2)CC1 | > 40000 nM (inactive) |
| O=C(Nc1nccs1)c1ccc(S(=O)(=O)NCC2CCCCC2)cc1 | > 40000 nM (inactive) |
| N=c1c2c(n(Cc3ccc(Cl)cc3Cl)c3c1CCC3)CCCC2 | 2260 nM |
| COc1ccc2c(c1)sc1nc(-c3ccccc3)cn12 | 750 nM |
| CC1CCCCC1NS(=O)(=O)c1ccc(S(=O)(=O)NCc2ccncc2)cc1 (centres undefined) | 2370 nM |
| CCOC(=O)Nc1c(C(=O)OC)[nH]c2cc(OC)ccc12 | 7940 nM (inactive) |
| Cc1cc(C(=O)Nc2sc3c(c2C#N)CCC3)no1 | 6700 nM (inactive) |
| COC(=O)Nc1ccc(S(=O)(=O)N2c3ccccc3CCC2C)cc1 (centres undefined) | 2190 nM |

| SMILES | CC50 |
| --- | --- |
| Cc1ccc(O)c(NC(=O)CCC2CCCCC2)c1 | 6000 nM (inactive) |
| Cn1c(C(=O)NCCc2c[nH]c3ccccc23)cc2sccc21 | > 40000 nM (inactive) |
| CCOC(=O)c1c(C)c(C(=O)Nc2cc(OC)ccc2OC)c(C)n1CC | 11400 nM (inactive) |
| Cn1c(SC2=CS(=O)(=O)c3ccccc32)nc2ccccc21 | 2660 nM |
| CCCn1c(NC(=O)C2CCN(S(=O)(=O)c3cccs3)CC2)nc2ccccc21 | > 40000 nM (inactive) |
| CCCNS(=O)(=O)c1ccc(OCC(=O)N2CCN(Cc3ccc4c(c3)OCO4)CC2)cc1 | 7960 nM (inactive) |
| CCOC(=O)c1nc(S(C)(=O)=O)ncc1Cl | 4660 nM |
| CCOc1cccc(-n2nnnc2-c2ccc(OC)cc2)c1 | 1060 nM |
| COc1ccc(C2CC(c3c(O)cc(C)oc3=O)=NCCS2)c(OC)c1 (centres undefined) | 318 nM |
| CCCOc1ccccc1C1CC(=O)NC2=C1C(=O)CCC2 (centres undefined) | 1520 nM |
| Oc1ccccc1-c1nnc(SCCN2CCOCC2)n1Cc1ccccc1 | 1700 nM |
| CCCCOc1ccccc1NC(=O)Cn1c(-c2nonc2N)nc2ccccc21 | 733 nM |
| CC(C)OCCCNc1ncnc2c1[nH]c1ccc(F)cc12 | 2020 nM |
| CCn1c2ccccc2c2cc(Nc3cc(C)nc4ncnn34)ccc21 | 109 nM |
| COc1ccc(CNc2cc(C)nc3ncnn23)c(OC)c1 | 3250 nM |
| CCOC(=O)C1(Nc2nccs2)Sc2ccccc2NC1=O (centres undefined) | 3660 nM |
| CSC1=C(C#N)C(c2ccc(Cl)cc2)C2=C(CC(C)(C)CC2=O)N1 (centres undefined) | 14700 nM (inactive) |
| Cc1ccc(C)c(S(=O)(=O)Nc2ccc3scnc3c2)c1 | 3080 nM |
| CCSc1nnc(NC(=O)c2ccccn2)s1 | 8300 nM (inactive) |
| Cc1cnc(C(=O)Nc2cccc3cccnc23)cn1 | 803 nM |
| O=S(=O)(C/C(=C/CO)S(=O)(=O)c1ccccc1)c1ccccc1 | 2200 nM |
| Cc1nn(Cc2ccccc2Cl)c(C)c1C(=O)Nc1nnc(C2CC2)s1 | > 40000 nM (inactive) |

| SMILES | CC50 |
| --- | --- |
| CCc1nnc(NC(=O)CSc2nc3cccnc3n2C2CCCCC2)s1 | > 40000 nM (inactive) |
| CCOc1ccc(Cl)cc1S(=O)(=O)n1cnc2ccccc21 | 14800 nM (inactive) |
| CC(C)Oc1cc(O)c2c(=O)c(-c3ccc(O)cc3)coc2c1 | 11000 nM (inactive) |
| COc1ccccc1C1C=C(c2ccc(C)cc2)Nc2nnnn21 (centres undefined) | > 40000 nM (inactive) |
| O=C(CSc1nc(-c2ccco2)cc(C(F)(F)F)n1)Nc1ccc2c(c1)OCO2 | 5190 nM (inactive) |
| Cc1cccc2cc3c(N)c(C(=O)N4CCOCC4)sc3nc12 | 950 nM |
| CCOc1ccc2nc(N3CCC(C(=O)N4CCN(c5ccccn5)CC4)CC3)sc2c1 | 23700 nM (inactive) |
| COc1ccc(S(=O)(=O)Cc2ccc(C(=O)N3CCN(c4cccc(C)c4)C(C)C3)o2)cc1 (centres undefined) | 1600 nM |
| O=C(Cc1n[nH]c(=O)c2ccccc12)OCC(=O)c1ccc2c(c1)OCCO2 | 3400 nM |
| C/C=C/COC(=O)c1[nH]c2c(c1C)C(=O)CC(c1ccco1)C2 (centres undefined) | 196 nM |
| CCCCOc1ccccc1C1CC(=O)NC2=C1C(=O)CCC2 (centres undefined) | 872 nM |
| N=c1ccn(Cc2ccc(Cl)c(Cl)c2)cc1 | 10400 nM (inactive) |
| COc1ccc(C2NCc3ccc4c(c3-n3cccc32)OCO4)cc1O (centres undefined) | 999 nM |
| O=C(Cn1cnc2c(cnn2-c2ccccc2)c1=O)NCc1ccccc1 | 9120 nM (inactive) |
| Cc1ccc2c(CC(=O)NCc3ccco3)coc2c1C | 7990 nM (inactive) |
| O=C(Cc1cccs1)Nc1nc2c(s1)CCCC2 | > 40000 nM (inactive) |
| COc1cccc(CNC(=O)c2cc3oc4ccccc4c3n2C)c1OC | > 40000 nM (inactive) |
| Cc1onc(-c2ccccc2Cl)c1C(=O)N1CCN(c2cccc(Cl)c2)CC1 | 832 nM |
| COc1cccc(-c2cc(C(=O)Nc3cccc(O)c3)no2)c1 | > 40000 nM (inactive) |
| Cc1cc(NC(=O)c2cc(-c3ccncc3)nc3c(C)cccc23)no1 | 2290 nM |
| C=CS(=O)(=O)c1ccc(Oc2ccc(S(=O)(=O)C=C)cc2)cc1 | 1900 nM |
